Our source for the IC50 values is patent US20250320224A1 (DOMAIN THERAPEUTICS, priority 2022, published 2025).

pIC50: −log10 of the molar value.

For the experiment, the target named is T1, human PAR-2 (hPAR-2) receptor (Homo sapiens, UniProt P55085).
T1 construct: expressed in HEK-293 cells in an endogenous manner; endogenous in cells; host or cells: HEK-293
T1 sequence (P55085 26-397): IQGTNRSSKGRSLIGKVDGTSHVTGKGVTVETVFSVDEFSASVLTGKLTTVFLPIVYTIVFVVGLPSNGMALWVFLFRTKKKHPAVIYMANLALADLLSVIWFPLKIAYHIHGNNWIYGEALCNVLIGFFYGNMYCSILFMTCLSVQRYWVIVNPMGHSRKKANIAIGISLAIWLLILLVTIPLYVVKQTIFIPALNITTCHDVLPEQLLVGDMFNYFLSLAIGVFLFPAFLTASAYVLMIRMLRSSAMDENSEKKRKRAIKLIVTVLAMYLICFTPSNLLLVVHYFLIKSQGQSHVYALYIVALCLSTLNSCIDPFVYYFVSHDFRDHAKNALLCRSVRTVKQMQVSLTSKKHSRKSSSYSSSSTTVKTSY
The experiment can be described thus: In vitro human PAR-2 functional antagonist activity using calcium assays. It counts as cell-based. The settings on record: hPAR-2 endogenously expressed in HEK-293 cells; stimulated by 2-Furoyl-LIGRLO-NH2 peptide; Fluo4AM intracellular calcium, FLIPR Tetra. In outline:
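Antagonism was measured as reduced calcium response to 2-Furoyl-LIGRLO-NH2 (dosed at its 80%-of-maximum concentration), recorded for 5 min. This followed a 10 min compound pre-incubation on Fluo4AM-loaded HEK-293 cells expressing native hPAR-2. Signals were normalised to buffer and agonist-alone controls.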
A general note: Calcium assays in cells follow changes in intracellular calcium, usually with a dye or a luminescent sensor.
A word on the pIC50: it is the IC50 on a negative log10 scale, so that one unit is a factor of ten. As to `Cc1ccc(N2CC(C)(C)c3nc(C(=O)N4CCN(c5ccc(CC(=O)O)cn5)CC4(C)C)cnc32)cc1F` [Example 203, 2-(6-(4-(5-(3-fluoro-4-methylphenyl)-7,7-dimethyl-6,7-dihydro-5H-pyrrolo[2,3-b]pyrazine-2-carbonyl)-3,3-dimethylpiperazin-1-yl)pyridin-3-yl)acetic acid], the pIC50 was above 6.30.
Turning to `CC1(C)CN(c2ccc(F)c(Cl)c2)c2ncc(C(=O)N3CCN(c4ccc(CC(=O)O)cn4)CC3(C)C)nc21` [Example 205, 2-(6-(4-(5-(3-chloro-4-fluorophenyl)-7,7-dimethyl-6,7-dihydro-5H-pyrrolo[2,3-b]pyrazine-2-carbonyl)-3,3-dimethylpiperazin-1-yl)pyridin-3-yl)acetic acid], the pIC50 was above 6.30.
Then `Cc1cc(N2CCN(C(=O)c3cnc4c(n3)C3(CCCC3)CN4c3ccc(Cl)c(F)c3)C(C)(C)C2)nc(C)c1C(=O)O` [Example 207, 6-(4-(5′-(4-chloro-3-fluorophenyl)-5′,6′-dihydrospiro[cyclopentane-1,7′-pyrrolo[2,3-b]pyrazine]-2′-carbonyl)-3,3-dimethylpiperazin-1-yl)-2,4-dimethylnicotinic acid], with above 6.30; and `Cc1cc(N2CCN(C(=O)c3ccc4c(n3)C(C)(C)CN4c3ccc4c(c3)COC4)C(C)(C)C2)nc(C)c1C(=O)O` [Example 209, 6-(4-(1-(1,3-dihydroisobenzofuran-5-yl)-3,3-dimethyl-2,3-dihydro-1H-pyrrolo[3,2-b]pyridine-5-carbonyl)-3,3-dimethylpiperazin-1-yl)-2,4-dimethylnicotinic acid], with above 6.30.
In the case of `CC1(C)CN(CCc2ccc(F)cc2)c2ncc(C(=O)N3CCN(c4ccc(CC(=O)O)cn4)CC3(C)C)nc21` [Example 211, 2-(6-(4-(5-(4-fluorophenethyl)-7,7-dimethyl-6,7-dihydro-5H-pyrrolo[2,3-b]pyrazine-2-carbonyl)-3,3-dimethylpiperazin-1-yl)pyridin-3-yl)acetic acid], the pIC50 is 5.00 to 6.30.
Then `Cc1cc(N2CCN(C(=O)c3cnc4c(n3)C(C)(C)CN4CCc3ccc(F)cc3)C(C)(C)C2)nc(C)c1C(=O)O` [Example 213], with 5.00 to 6.30; and `Cc1cc(N2CCN(C(=O)c3ccc4c(n3)C3(CN4c4ccc(Cl)c(F)c4)CC(C)(C)C3)C(C)(C)C2)nc(C)c1C(=O)O` [Example 215, 6-(4-(1′-(4-chloro-3-fluorophenyl)-3,3-dimethyl-1′,2′-dihydrospiro[cyclobutane-1,3′-pyrrolo[3,2-b]pyridine]-5′-carbonyl)-3,3-dimethylpiperazin-1-yl)-2,4-dimethylnicotinic acid], with above 6.30; and `CC1(C)CN(c2cc(F)c(F)c(F)c2)c2ncc(C(=O)N3CCN(c4ccc(CC(=O)O)cn4)CC3(C)C)nc21` [Example 217, 2-(6-(4-(7,7-dimethyl-5-(3,4,5-trifluorophenyl)-6,7-dihydro-5H-pyrrolo[2,3-b]pyrazine-2-carbonyl)-3,3-dimethylpiperazin-1-yl)pyridin-3-yl)acetic acid], with above 6.30.
For `CC1(C)CN(c2ccc(C(F)(F)F)c(Cl)c2)c2ncc(C(=O)N3CCN(c4ccc(CC(=O)O)cn4)CC3(C)C)nc21` [Example 219, 2-(6-(4-(5-(3-chloro-4-(trifluoromethyl)phenyl)-7,7-dimethyl-6,7-dihydro-5H-pyrrolo[2,3-b]pyrazine-2-carbonyl)-3,3-dimethylpiperazin-1-yl)pyridin-3-yl)acetic acid], the pIC50 was above 6.30.
Turning to `CC1(C)CN(c2ccc(Cl)c(Cl)c2)c2ncc(C(=O)N3CCN(c4ccc(CC(=O)O)cn4)CC3(C)C)nc21` [Example 221, 2-(6-(4-(5-(3,4-dichlorophenyl)-7,7-dimethyl-6,7-dihydro-5H-pyrrolo[2,3-b]pyrazine-2-carbonyl)-3,3-dimethylpiperazin-1-yl)pyridin-3-yl)acetic acid], the pIC50 was above 6.30.
Then `Cc1cc(N2CCN(C(=O)c3cnc4c(n3)C3(CCCC3)CN4c3ccc(F)c(F)c3)C(C)(C)C2)nc(C)c1C(=O)O` [Example 223, 6-(4-(5′-(3,4-difluorophenyl)-5′,6′-dihydrospiro[cyclopentane-1,7′-pyrrolo[2,3-b]pyrazine]-2′-carbonyl)-3,3-dimethylpiperazin-1-yl)-2,4-dimethylnicotinic acid], with above 6.30.
Regarding `COCC1CC2(C1)CN(c1ccc(Cl)c(F)c1)c1ccc(C(=O)N3CCN(c4cc(C)c(C(=O)O)c(C)n4)CC3(C)C)nc12` (stereo not shown) [Example 225, 6-(4-(1′-(4-chloro-3-fluorophenyl)-3-(methoxymethyl)-1′,2′-dihydrospiro[cyclobutane-1,3′-pyrrolo[3,2-b]pyridine]-5′-carbonyl)-3,3-dimethylpiperazin-1-yl)-2,4-dimethylnicotinic acid], the pIC50 was above 6.30.
In the case of `CC1(C)CN(c2ccc(CC(=O)O)cn2)CCN1C(=O)c1cnc2c(n1)C1(CCCC1)CN2c1ccc(F)c(F)c1` [Example 229, 2-(6-(4-(5′-(3,4-difluorophenyl)-5′,6′-dihydrospiro[cyclopentane-1,7′-pyrrolo[2,3-b]pyrazine]-2′-carbonyl)-3,3-dimethylpiperazin-1-yl)pyridin-3-yl)acetic acid] it was above 6.30.
In the case of `CC1(C)CN(c2ccc(CC(=O)O)cn2)CCN1C(=O)c1cnc2c(n1)C1(CCC1)CN2c1ccc(Cl)c(F)c1` [Example 231, 2-(6-(4-(5′-(4-chloro-3-fluorophenyl)-5′,6′-dihydrospiro[cyclobutane-1,7′-pyrrolo[2,3-b]pyrazine]-2′-carbonyl)-3,3-dimethylpiperazin-1-yl)pyridin-3-yl)acetic acid] it was above 6.30; in that of `Cc1cc(N2CCN(C(=O)c3cnc4c(n3)C3(CN4c4ccc(F)c(F)c4)CC(C)(C)C3)C(C)(C)C2)nc(C)c1C(=O)O` [Example 233, 6-(4-(5′-(3,4-difluorophenyl)-3,3-dimethyl-5′,6′-dihydrospiro[cyclobutane-1,7′-pyrrolo[2,3-b]pyrazine]-2′-carbonyl)-3,3-dimethylpiperazin-1-yl)-2,4-dimethylnicotinic acid], above 6.30.
As for `Cc1cc(N2CCN(C(=O)c3cnc4c(n3)C3(CN4c4cc(F)c(F)c(F)c4)CC(C)(C)C3)C(C)(C)C2)nc(C)c1C(=O)O` [Example 235, 6-(4-(3,3-dimethyl-5′-(3,4,5-trifluorophenyl)-5′,6′-dihydrospiro[cyclobutane-1,7′-pyrrolo[2,3-b]pyrazine]-2′-carbonyl)-3,3-dimethylpiperazin-1-yl)-2,4-dimethylnicotinic acid], the pIC50 was above 6.30.
Then `Cc1cc(N2CCN(C(=O)c3cnc4c(n3)C3(CCC3)CN4c3ccc(Cl)c(F)c3)C(C)(C)C2)nc(C)c1C(=O)O` [Example 237, 6-(4-(5′-(4-chloro-3-fluorophenyl)-5′,6′-dihydrospiro[cyclobutane-1,7′-pyrrolo[2,3-b]pyrazine]-2′-carbonyl)-3,3-dimethylpiperazin-1-yl)-2,4-dimethylnicotinic acid], with above 6.30.
Then `COCC1CC2(C1)CN(c1ccc(Cl)c(F)c1)c1ccc(C(=O)N3CCN(c4ccc(CC(=O)O)cn4)CC3(C)C)nc12` (stereo not shown) [Example 239, 2-(6-(4-(1′-(4-chloro-3-fluorophenyl)-3-(methoxymethyl)-1′,2′-dihydrospiro[cyclobutane-1,3′-pyrrolo[3,2-b]pyridine]-5′-carbonyl)-3,3-dimethylpiperazin-1-yl)pyridin-3-yl)acetic acid], with above 6.30; and `CC1(C)CN(c2cc(F)c(Cl)c(F)c2)c2ncc(C(=O)N3CCN(c4ccc(CC(=O)O)cn4)CC3(C)C)nc21` [Example 241, 2-(6-(4-(5-(4-chloro-3,5-difluorophenyl)-7,7-dimethyl-6,7-dihydro-5H-pyrrolo[2,3-b]pyrazine-2-carbonyl)-3,3-dimethylpiperazin-1-yl)pyridin-3-yl)acetic acid], with above 6.30.
`CC1(C)CN(c2ccc(CC(=O)O)cn2)CCN1C(=O)c1cnc2c(n1)C1(CCCC1)CN2c1ccc(Cl)c(F)c1` [Example 243, 2-(6-(4-(5′-(4-chloro-3-fluorophenyl)-5′,6′-dihydrospiro[cyclopentane-1,7′-pyrrolo[2,3-b]pyrazine]-2′-carbonyl)-3,3-dimethylpiperazin-1-yl)pyridin-3-yl)acetic acid]: the negative-log IC50 (pIC50) was above 6.30.
On to `CC1(C)CC2(CN(c3ccc(F)c(F)c3)c3ncc(C(=O)N4CCN(c5ccc(CC(=O)O)cn5)CC4(C)C)nc32)C1` [Example 245, 2-(6-(4-(5′-(3,4-difluorophenyl)-3,3-dimethyl-5′,6′-dihydrospiro[cyclobutane-1,7′-pyrrolo[2,3-b]pyrazine]-2′-carbonyl)-3,3-dimethylpiperazin-1-yl)pyridin-3-yl)acetic acid], for which the pIC50 was above 6.30.
With `Cc1cc(N2CCN(C(=O)c3cnc4c(n3)C3(CN4c4ccc(Cl)c(F)c4)CC(C)(C)C3)C(C)(C)C2)nc(C)c1C(=O)O` [Example 247, 6-(4-(5′-(4-chloro-3-fluorophenyl)-3,3-dimethyl-5′,6′-dihydrospiro[cyclobutane-1,7′-pyrrolo[2,3-b]pyrazine]-2′-carbonyl)-3,3-dimethylpiperazin-1-yl)-2,4-dimethylnicotinic acid], the negative-log IC50 (pIC50) is above 6.30.
